In patent US20260184710A1, “CASITAS B-LINEAGE LYMPHOMA PROTOONCOGENE B (CBL-B) DEGRADING COMPOUNDS AND ASSOCIATED METHODS OF USE” (Arvinas Operations, Inc., priority 2022, published 2026):

Tests used:
Cbl-b [1] = target: T1, Cbl-b (Homo sapiens, UniProt Q13191); assay: Cbl-b Degradation Method B (Nano-Glo HiBiT lytic detection); format: cell-based; details: Cbl-b-HiBit KI Jurkat Cells, incubated at least 6-24 hours; for DC50: half maximal degradation, read-out: Cbl-b Degredation Method B IC50; for Dmax: maximum degradation observed, read-out: Cbl-b Degredation Method B Dmax (%)
T1 construct: Cbl-b-HiBit KI Jurkat Cells were purchased from Promega; host or cells: Cbl-b-HiBiT knock-in Jurkat cells
Method in brief: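 Cbl-b-HiBiT knock-in Jurkat cells (20,000/well) were treated after ~24 h plating with an 11-point 1:3 series for 6-24 h at 37° C. Remaining Cbl-b measured by Nano-Glo HiBiT lytic luminescence. DC50 and Dmax expressed as % of control.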

Cbl-b [2] = target: T1, Cbl-b; assay: Cbl-b Degradation Method A (FACS, anti-Cbl-b antibody staining); format: cell-based; details: Cbl-b-HiBit KI Jurkat Cells, incubated at least 20 hours; for DC50: half maximal degradation, read-out: Cbl-b Degredation Method A IC50; for Dmax: Jurkat, maximum degradation observed, read-out: Cbl-b Degredation Method A Dmax (%)
Method in brief: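 Cbl-b-HiBit KI Jurkat cells treated with compound for at least 20 h at 37 °C, then fixed, permeabilized and stained with anti-Cbl-b antibody plus anti-rabbit AF488 secondary. Cbl-b levels read by FACS; DC50 and Dmax (percent of control) derived.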

T1 sequence (Q13191 whole entry): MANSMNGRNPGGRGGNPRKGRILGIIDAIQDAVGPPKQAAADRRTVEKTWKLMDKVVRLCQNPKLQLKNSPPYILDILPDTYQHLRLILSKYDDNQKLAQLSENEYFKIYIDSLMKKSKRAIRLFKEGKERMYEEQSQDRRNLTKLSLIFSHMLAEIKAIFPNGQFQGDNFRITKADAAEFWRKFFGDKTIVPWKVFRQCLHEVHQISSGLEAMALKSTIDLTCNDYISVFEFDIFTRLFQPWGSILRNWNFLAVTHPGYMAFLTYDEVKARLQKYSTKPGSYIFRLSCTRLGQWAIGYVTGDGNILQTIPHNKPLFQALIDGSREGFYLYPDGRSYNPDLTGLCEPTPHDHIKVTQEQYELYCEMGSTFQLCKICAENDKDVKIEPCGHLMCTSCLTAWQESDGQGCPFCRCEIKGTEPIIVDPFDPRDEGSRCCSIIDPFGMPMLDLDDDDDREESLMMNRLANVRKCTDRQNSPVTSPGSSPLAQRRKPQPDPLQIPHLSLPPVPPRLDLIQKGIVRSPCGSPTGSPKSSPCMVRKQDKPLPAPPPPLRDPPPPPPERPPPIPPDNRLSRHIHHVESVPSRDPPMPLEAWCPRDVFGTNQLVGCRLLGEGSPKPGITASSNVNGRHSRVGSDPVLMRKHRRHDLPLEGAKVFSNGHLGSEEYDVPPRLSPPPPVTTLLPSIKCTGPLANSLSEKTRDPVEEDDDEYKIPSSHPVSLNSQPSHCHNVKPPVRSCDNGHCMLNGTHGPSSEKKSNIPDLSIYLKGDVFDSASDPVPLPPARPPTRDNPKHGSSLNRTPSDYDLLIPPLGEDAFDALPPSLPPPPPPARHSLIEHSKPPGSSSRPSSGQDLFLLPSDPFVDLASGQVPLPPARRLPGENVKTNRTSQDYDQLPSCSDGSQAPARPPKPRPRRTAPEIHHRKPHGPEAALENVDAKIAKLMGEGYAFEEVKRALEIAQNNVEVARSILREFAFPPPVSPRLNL

SMILES | DC50 (Cbl-b [1]) [nM] | Dmax (Cbl-b [1]) [%] | DC50 (Cbl-b [2]) [nM] | Dmax (Cbl-b [2]) [%]
CC1c2nc(N3CCC(O[C@H]4CC[C@H](CN5C[C@H]6C[C@@H]5CN6Cc5cc6c(c(C(F)(F)F)c5)CN(c5cccc([C@]7(Cc8nncn8C)C[C@@H](C#N)C7)c5)C6=O)CC4)CC3)ccc2C(=O)N1C1CCC(=O)NC1=O (stereo partly drawn) [Example 217, (1r,3r)-3-[(4-methyl-4H-1,2,4-triazol-3-yl)methyl]-3-[3-(1-oxo-6-{[(1R,4R)-5-{[(1r,4r)-4-({1-[6-(2,6-dioxopiperidin-3-yl)-7-methyl-5-oxo-5H,6H,7H-pyrrolo[3,4-b]pyridin-2-yl]piperidin-4-yl}oxy)cyclohexyl]methyl}-2,5-diazabicyclo[2.2.1]heptan-2-yl]methyl}-4-(trifluoromethyl)-2,3-dihydro-1H-isoindol-2-yl)phenyl]cyclobutane-1-carbonitrile] | < 5 | 35 to 70 | 5 to 50 | 35 to 70
Cn1cnnc1C[C@]1(c2cccc(N3Cc4c(cc(CN5CCN(C[C@H]6CC[C@H](OC7CCN(c8ccc9c(c8)CC(=O)N9C8CCC(=O)NC8=O)CC7)CC6)CC5)cc4C(F)(F)F)C3=O)c2)C[C@H](C#N)C1 (some centres unmarked) [Example 219, (1r,3r)-3-[(4-methyl-4H-1,2,4-triazol-3-yl)methyl]-3-(3-{1-oxo-6-[(4-{[(1r,4r)-4-({1-[1-(2,6-dioxopiperidin-3-yl)-2-oxo-2,3-dihydro-1H-indol-5-yl]piperidin-4-yl}oxy)cyclohexyl]methyl}piperazin-1-yl)methyl]-4-(trifluoromethyl)-2,3-dihydro-1H-isoindol-2-yl}phenyl)cyclobutane-1-carbonitrile] | < 5 | > 70 | < 5 | > 70
Cc1cc(N2CCC(O[C@H]3CC[C@H](CN4CCN(Cc5cc6c(c(C(F)(F)F)c5)CN(c5cccc([C@]7(Cc8nncn8C)C[C@H](C#N)C7)c5)C6=O)[C@@H](C)C4)CC3)CC2)c(F)c2c1C(=O)N(C1CCC(=O)NC1=O)C2 (stereo partly drawn) [Example 220, (1r,3r)-3-[3-(6-{[(2S)-2-methyl-4-{[(1r,4r)-4-({1-[2-(2,6-dioxopiperidin-3-yl)-4-fluoro-7-methyl-1-oxo-2,3-dihydro-1H-isoindol-5-yl]piperidin-4-yl}oxy)cyclohexyl]methyl}piperazin-1-yl]methyl}-1-oxo-4-(trifluoromethyl)-2,3-dihydro-1H-isoindol-2-yl)phenyl]-3-[(4-methyl-4H-1,2,4-triazol-3-yl)methyl]cyclobutane-1-carbonitrile] | < 5 | > 70 | 5 to 50 | > 70
Cn1cnnc1CC1(c2cccc(-n3cc4c(C(F)(F)F)cc(CN5CCC[C@H](CN6CCN(C[C@H]7CC[C@@H](OC8CCN(c9ccc%10c(c9F)CN(C9CCC(=O)NC9=O)C%10=O)CC8)CC7)CC6)C5)cc4n3)c2)COC1 (stereo partly drawn) [Example 221, 3-[4-fluoro-1-oxo-5-(4-{[(1r,4r)-4-[(4-{[(3S)-1-{[2-(3-{3-[(4-methyl-4H-1,2,4-triazol-3-yl)methyl]oxetan-3-yl}phenyl)-4-(trifluoromethyl)-2H-indazol-6-yl]methyl}piperidin-3-yl]methyl}piperazin-1-yl)methyl]cyclohexyl]oxy}piperidin-1-yl)-2,3-dihydro-1H-isoindol-2-yl]piperidine-2,6-dione] | < 5 | > 70 | < 5 | > 70
CC1c2nc(N3CCC(O[C@H]4CC[C@@H](CN5C[C@@H]6C[C@H]5CN6Cc5cc6c(c(C(F)(F)F)c5)CN(c5cccc(C7(Cc8nncn8C)CCC7)c5)C6=O)CC4)CC3)ccc2C(=O)N1C1CCC(=O)NC1=O (stereo partly drawn) [Example 223, 3-[7-methyl-5-oxo-2-(4-{[(1r,4r)-4-{[(1S,4S)-5-{[2-(3-{1-[(4-methyl-4H-1,2,4-triazol-3-yl)methyl]cyclobutyl}phenyl)-3-oxo-7-(trifluoromethyl)-2,3-dihydro-1H-isoindol-5-yl]methyl}-2,5-diazabicyclo[2.2.1]heptan-2-yl]methyl}cyclohexyl]oxy}piperidin-1-yl)-5H,6H,7H-pyrrolo[3,4-b]pyridin-6-yl]piperidine-2,6-dione] | < 5 | 35 to 70 | 5 to 50 | 35 to 70
